Assays:
[1] = test system: RPTEC/hTERT cells; experiment: Caspase 3/7 activity in RPTEC cells; type: cell-based, human; conditions: cisplatin 50 μM, 48 hours
Experimental: Cells were cultured in DMEM/F12 medium (Dulbecco's modified Eagle's medium and Ham's F12 medium, Thermo Fisher) supplemented with 1% penicillin/streptomycin, 5 pmol/L triiodo-L-thyronine, 10 ng/ml recombinant human epidermal growth factor, 3.5 μg/mL ascorbic acid, 5.0 μg/mL human transferrin, 5.0 μg/mL insulin, 25 ng/mL prostaglandin E1, 25 ng/ml hydrocortisone, 8.65 ng/mL sodium selenite, 0.1 mg/mL G418 and 1.2 g/L sodium bicarbonate (Sigma). Lewis lung carcinoma mouse LLC1 cells were cultured in DMEM glutamax (Thermo Fisher) containing 10% fetal calf serum and 1% penicillin/streptomycin. Cells were cultured at 37° C. in a humidified atmosphere of 5% CO2.
Apoptosis was assessed in RPTEC/hTERT and LLC1 cell lysates using the caspase-Glo 3/7 assay (Promega) according to manufacturer's recommendations.

[2] = test system: C57BL6/J mice; experiment: Sub-chronic cisplatin-induced kidney injury model; type: in vivo
Experimental: FIG. 1. Schematic representation of the different animal procedures. (A) Acute cisplatin-induced kidney injury. […] (B) Sub-chronic cisplatin-induced kidney injury. […] (C) KW-6002 administration schedule in the acute model. […] (D) KW-6002 administration schedule in the sub-chronic model.
Animal experiments were adapted from 63-64. Animal procedures were performed in 8 to 10 weeks old male C57B16/J mice (Janvier Labs). Mice were fed a laboratory standard diet with water and food ad libitum and were kept under constant environmental conditions with a 12-hour light-dark cycle. Istradefylline (KW-6002; Tocris) was dissolved in a carrier solution consisting in 15% DMSO, 15% cremophor (Sigma), 70% saline solution (vehicle). Cisplatin (Accord Healthcare) was dissolved in saline solution. […] Three days after this single injection, animals were sacrificed by cervical dislocation (FIG. 1A).
Prior sacrifice by cervical dislocation, retro-orbital blood samples were collected in heparinized tubes and centrifuged for 10 min at 2000 rpm at room temperature. Renal function was assessed by Blood urea nitrogen (BUN) measurement using a AU480 Chemistry Analyzer (Beckman Coulter). At the time of sacrifice, kidneys or LLC1 tumors were harvested and stored in either “RNA later” solution (Thermo Fisher), 4% neutral buffered formalin or snap-frozen in liquid nitrogen.
Formalin-fixed and paraffin-embedded sections (3 μm thick) were stained with Hematoxylin and Eosin (Sigma Aldrich) or Periodic Acid-Schiff (Sigma-Aldrich). Slices were scored by a nephropathologist in a blinded manner. A kidney injury score grading scale from 0 to 5 was used to assess the severity of the injury as follow: 0=no lesions, 1=minimal injury characterized by occurrence of necrosis and debris; 2=mild injury with single cell necrosis, pyknotic cells, and apoptosis; 3=moderate injury characterized by tubular distension, vacuolation, and some cellular debris, 4=severe injury with occasional hyaline casts observed, patchy epithelial necrosis in all segments, loss of epithelial lining; and 5=very severe injury characterized by extensive tubular epithelial necrosis in all segments, loss of epithelial layer from many tubules widespread intraluminal cellular debris, and frequent hyaline casts particularly prominent in the medullary region (67).
Total RNA from kidney samples was extracted with phenol/chloroform and subsequently precipitated in isopropanol as described previously (71). Total RNA from cultured renal cells was extracted using RNeasy Mini kit (Qiagen) following manufacturer's recommendations.
Reverse transcription was performed on 1 μg of RNA using high-capacity cDNA reverse transcription kit (Thermo Fisher), according the manufacturer's recommendation. Real time PCR was performed on a StepOne device using Taqman Gene Expression Master Mix (Thermo Fisher), following manufacturer's recommendations. […]

[3] = test system: H1975 cells; experiment: Cell efflux (flow cytometry) in H1975 cells; type: cell-based; conditions: cancer cells in response to cisplatin, data not shown
Experimental: The basic cell efflux function was assessed using an EFLUXX-ID Green Multidrug Resistance Assay Kit (ENZO Life Sciences). Briefly, 2.5×10^5 cells/condition were collected, washed with PBS, and incubated with the EFLUXX-ID Green Detection Reagent for 30 minutes at 37° C., and then efflux was measured immediately by flow cytometry (CytoFLEX LX, Beckman Coulter). All experiments were performed in triplicate, with the measurement of 10,000 individual cells. Data were analyzed using Kaluza Analysis Software (Beckman Coulter).

[4] = test system: H1975 cells; experiment: Comet assay in H1975 cells; type: cell-based; conditions: FIG. 7E
Experimental: FIG. 7. […] Caspase 3/-7 activity (n=3 independent experiments) (A) and the number of γH2AX nuclear foci (n=36-63 nuclei/group) (B) were determined. […] Results are expressed as the mean±SEM (n=3 independent experiments). (E) Tail moment was assessed by comet assay. A total of 50 cells per condition were analyzed. *** P<0.001; 1-way ANOVA followed by Tukey's post hoc test. […] (I) KW6002 increased yH2AX expression in tumors from mice of the LLC1 syngeneic model. Quantification of nuclear yH2AX expression.
Treated cells were suspended (60,000 cells/mL) in low-melt agarose (1613111, Bio-Rad) 0.5% in PBS at 42° C. The suspension was then immediately spread on a comet slide (4250-200-03, R&D Systems). Agarose was allowed to cool down for 20 minutes at 4° C. Then, cell membranes were permeabilized with a lysis solution (2.5M NaCl, 100 mM EDTA, 10 mM Tris-HCl, 1% Triton X-100 [pH 10]) at 4° C. for 1 hour. […] The images were analyzed using an ImageJ in-home macro, in which the head (the nucleus) and tail (the DNA that migrated) of the comet were delimited to get the fluorescence intensity of the head, the fluorescence intensity of the tail, and the length of the tail. The calculation of tail moments was done using the following formula: (length of the comet tail×fluorescence intensity of the tail)/total fluorescence intensity (head+tail).

## CCn1c(=O)c2c(nc(/C=C/c3ccc(OC)c(OC)c3)n2C)n(CC)c1=O [KW-6002, 8-[(E)-2-(3,4-dimethoxyphenyl)vinyl]-1,3-diethyl-7-methyl-3,7-dihydro-1H-purine-2,6-dione]
[1]
  cisplatin-induced apoptosis: inhibited cisplatin-induced apoptosis
[1]; listed as KW6002
  cisplatin-induced apoptosis: inhibiting cisplatin-induced apoptosis
[2]; SC model, FIG. 2H
  histological lesions (histological score of renal injury): less severe histological lesions
[2]; SC model, FIG. 2K, figure not given
  mRNA levels of Tnfα: lower mRNA levels of Tnfα
[2]; SC model, kidney
  mRNA levels of I16, change vs. cisplatin: −77.5±5.6%
[2]; SC model, kidney mRNA
  reduction of KIM-1 expression vs. cisplatin: −79.5±3.8%
  reduction of NGAL expression vs. cisplatin: −82.9±1.4%
[2]; SC model: cisplatin 3 mg/kg i.p. six days, KW-6002 3 mg/kg i.p. daily day-5 to day 7
  reduction of BUN vs. cisplatin: −70.2±5.1%
[2]; in vivo, subchronic model, FIG. 6D
  cisplatin-induced increase in expression of Nrf2: normalized
[2]; in vivo, subchronic model, FIG. 6E
  cisplatin-induced increase in expression of HO1: normalized
[2]; independent experiment, animals of FIGS. 2G-2L
  effect on platinum accumulation in kidneys: replicated
[3]
  efflux: significantly reduced
[4]
  DNA damage: tail moment: did not impede the antitumoral effect of cisplatin
